In publication PMC3806745, “Selective Inhibition of Matrix Metalloproteinase-9 Attenuates Secondary Damage Resulting from Severe Traumatic Brain Injury” (PLoS ONE, 2013):

How the values were obtained:
[1] = mouse, in vivo, ip, 25 mg/kg
Procedure: (§1) Under anesthesia, terminal blood was collected in heparin tubes through the posterior vena cava at various time points after the last dose, and tubes were centrifuged to collect plasma. Whole brain samples were harvested after transcardiac perfusion with saline and immediately flash frozen in liquid nitrogen and stored at −80°C until analysis. […] At 10 minutes after the last dose, whole brain samples were rapidly dissected into different regions (cortex, striatum, hippocampus, cerebellum and brain stem), and immediately frozen in dry ice.
(§2) A 75-µL aliquot of plasma was mixed with 150 µL of internal standard in acetonitrile. The sample was centrifuged at 10,000×g for 10 minutes. Brain samples were weighed and homogenized for 5 minutes in one volume equivalent of cold acetonitrile, containing an internal standard, using a bullet blender (Next Advance, Inc., Averill Park, NY). For regional brain distribution, the striatum, hippocampus, cerebellum and brain stem samples were pooled from 3 different mice for analysis.
(§3) The homogenates were centrifuged twice at 20,000×g for 20 minutes at 4°C. […] Quantification was performed using peak area ratios relative to the internal standard and linear regression parameters were calculated from the calibration curve standards prepared in blank mouse plasma (and blank brain). The internal standard used in all of the analyses was N-(4-(4-((thiiran-2-ylmethyl)sulfonyl)phenoxy)phenyl)methanesulfonamide [43], which was analyzed by MRM using the transition 398→261.
(§4) Pharmacokinetic parameters were calculated as follows. The area under the mean concentration-time curve up to the last quantifiable sampling time (AUC 0–last) was calculated by the trapezoidal rule using the pharmacokinetic software PK Solutions (Version 2.0, Summit Research Services, Montrose, CO). The AUC-time curve from time zero to infinity (AUC 0–∞), representing systemic exposure of a therapeutic agent in the body, was calculated as AUC 0–last+(C last/k), where C last is the concentration at the last quantifiable sampling time and k is the elimination rate constant. Half-lives (t ½α and t ½β) were estimated from the linear segment of the initial or terminal portion of the concentration-time data by linear regression, where the slope of the line was the rate constant k and t ½ = ln 2/k.

[2] = cited from earlier work
[3] = test system: TBI mouse model (EM impactor CCI); test: Brain lesion volume in cresyl violet-stained sections after TBI (stereology, WSI); format: in vivo; details: TBI mice, 25 mg/kg i.p. for 7 days
Procedure: All animal procedures were performed under the compliance with protocol approval by the University of Missouri Animal Care and Use Committee, which is in accordance with the National Institutes of Health Guide for the Care and Use of Laboratory Animals. The TBI procedure employed an EM impactor for CCI and was conducted as previously described. A total of 86 mice were used in this study. Briefly, 8–10 week-old adult male C57BL/6J mice (The Jackson Laboratory, Bar Harbor, ME) weighing 20–25 g were anesthetized with 2.0% gaseous isoflurane in a nitrogen/oxygen mixture inside a sealed anesthesia chamber. Each mouse was then stably placed on a Kopf stereotaxic apparatus (David Kopf Instruments, Tujunga, CA). Body temperature was monitored with a rectal thermistor probe (TH-10Kmp, Cell MicroControls, Norfolk, VA), and maintained at a constant 37°C on a silicon heating pad (HS-3×2.5 Heater, Cell MicroControls, Norfolk, VA). Following a midline skin incision and removal of connective tissue under sterile conditions, a 5.0 mm diameter craniotomy was performed in the left parietotemporal skull using a pedal-operated high-speed micro-drill mounted on the stereotaxic arm. A 5.0-mm diameter bone disc was then removed to expose the left cortex, while keeping the dura mater intact. A MATLAB-controlled EM impactor (MyNeuroLab Stereotaxic Impactor, St. Louis, MO) with a 3.0-mm diameter tip was centered at 2.7 mm to the left of the midline suture and 3.0 mm rostral to lambda, at an angle of 15° with the vertical. Once the position was set, the EM impactor delivered a CCI with a velocity of 5.0 m/s and dwell time of 100 ms, at a depth of 2.5 mm. This operation produces a moderately severe contusion in the left parietotemporal cortex and the underlying hippocampus as marked by pronounced behavioral deficits, but virtually no mortality. Following impact, the original skull disc was placed back over the exposed cortex, and the incision was sutured. Each mouse was released from anesthesia and placed in an empty cage over a heating pad for recovery. All efforts were made to minimize animal suffering. For sham control mice used in the study, only the craniotomy was performed. […] Mice were observed daily for the duration of the study (7 or 30 days). For design of the 30-day long term study, animals in each group were double-blinded and randomly assigned into two different tissue process procedures after behavioral testing–mouse brains were either fixed and sectioned for histopathological evaluation, or freshly dissected and then frozen at −80°C for later analysis, reflecting the difference of the animal numbers mentioned in the legends of Figures 7 and 8.
At 7 or 30 days after TBI, mice were sacrificed and brains were processed for histochemical staining and assessment of brain lesion volumes using the stereology technique as described, [45]. Briefly, mice were sacrificed at appropriate experimental time points and transcardially perfused with 4% paraformaldehyde in 100 mM phosphate buffer (PB) and brains were dissected. […] Every 5th section was mounted on poly-L-lysine coated glass slides and stained with cresyl violet to quantify brain lesion volumes and examine neuronal cell death.
Systematic evaluation of a large number of histological specimens in an unbiased manner requires high-speed imaging tools for the supervised analysis of pathological assessment to reduce quantitative variations. […]

[4] = Plasma and brain levels and pharmacokinetics of SB-3CT and p-OH SB-3CT after repeated i.p. SB-3CT (UPLC/ESI-MRM); details: mice
Procedure: as §1, §2, §3, §4

MMP-9 = MMP-9 (Mus musculus, UniProt P41245); test: Gelatin zymography of cortical tissue after TBI; format: in vivo; details: TBI mice, 25 mg/kg/day i.p. for 7 days, 7 days post-trauma, vs vehicle
Chain of MMP-9 (P41245 108-730): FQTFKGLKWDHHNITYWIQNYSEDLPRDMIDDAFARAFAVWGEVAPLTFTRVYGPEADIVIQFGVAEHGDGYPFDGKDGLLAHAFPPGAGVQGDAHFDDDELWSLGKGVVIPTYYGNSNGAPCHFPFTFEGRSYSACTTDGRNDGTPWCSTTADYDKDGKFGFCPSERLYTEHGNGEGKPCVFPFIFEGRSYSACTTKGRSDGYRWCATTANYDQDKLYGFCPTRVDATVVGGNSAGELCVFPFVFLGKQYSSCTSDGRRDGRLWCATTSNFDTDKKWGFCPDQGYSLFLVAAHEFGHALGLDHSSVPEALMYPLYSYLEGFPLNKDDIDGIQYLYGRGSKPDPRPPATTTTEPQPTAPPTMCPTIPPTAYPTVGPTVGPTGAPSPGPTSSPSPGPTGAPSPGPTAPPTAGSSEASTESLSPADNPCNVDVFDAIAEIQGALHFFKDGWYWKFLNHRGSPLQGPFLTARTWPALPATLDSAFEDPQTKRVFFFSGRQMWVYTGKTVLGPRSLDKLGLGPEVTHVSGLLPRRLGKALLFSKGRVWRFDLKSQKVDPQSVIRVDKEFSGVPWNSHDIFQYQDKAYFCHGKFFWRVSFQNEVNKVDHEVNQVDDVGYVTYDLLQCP
Procedure: All animal procedures were performed under the compliance with protocol approval by the University of Missouri Animal Care and Use Committee, which is in accordance with the National Institutes of Health Guide for the Care and Use of Laboratory Animals. The TBI procedure employed an EM impactor for CCI and was conducted as previously described. A total of 86 mice were used in this study. Briefly, 8–10 week-old adult male C57BL/6J mice (The Jackson Laboratory, Bar Harbor, ME) weighing 20–25 g were anesthetized with 2.0% gaseous isoflurane in a nitrogen/oxygen mixture inside a sealed anesthesia chamber. Each mouse was then stably placed on a Kopf stereotaxic apparatus (David Kopf Instruments, Tujunga, CA). Body temperature was monitored with a rectal thermistor probe (TH-10Kmp, Cell MicroControls, Norfolk, VA), and maintained at a constant 37°C on a silicon heating pad (HS-3×2.5 Heater, Cell MicroControls, Norfolk, VA). […]
Gelatinase activity in brain homogenates was determined by gelatin zymography as described previously, [16]. […] Bound material was released from the beads using 10% DMSO in TBS, and samples were analyzed by electrophoresis in a 10% SDS-PAGE gel containing 0.1% gelatin under non-reducing conditions, followed by incubation overnight at 37°C in 50 mM Tris buffer, pH 8, with 5 mM CaCl2, 200 mM NaCl, and 0.02% Brij 35. […]

[5] = repeated 25 mg/kg i.p. SB-3CT, 20 min after last dose
[6] = repeated 25 mg/kg i.p. SB-3CT, 30 min after last dose
[7] = repeated 25 mg/kg i.p. SB-3CT, 60 min after last dose
[8] = repeated 25 mg/kg i.p. SB-3CT, 90 min after last dose
[9] = repeated 25 mg/kg i.p. SB-3CT, 120 min after last dose

O=S(=O)(CC1CS1)c1ccc(Oc2ccccc2)cc1 (stereo not drawn) [SB-3CT]
AUC 0–last, brain [1]: 86.1 pmol·min/mg
AUC 0–last, plasma [1]: 130 µM·min
AUC 0–∞, brain [1]: 87.8 pmol·min/mg
AUC 0–∞, plasma [1]: 134 µM·min
t ½β (elimination half-life), brain [1]: 53 min
t ½β (elimination half-life), plasma [1]: 25 min
Brain AUC 0–∞ ([2]; following a single dose of SB-3CT): 122 pmol·min/mg
Elimination half-life ([2]; mouse, in vivo): 46 min
Reduction in brain damage (cortical lesion volume) vs vehicle ([3]; 7 days post-trauma): ~14%
Cortical lesion volume ([3]; 30 days post-trauma): 15.60±1.26 mm^3
Cortical lesion volume smaller than vehicle ([3]; 30 days post-trauma): approximately 24%
Hippocampal lesion volume ([3]; 30 days post-trauma): 4.91±0.40 mm^3
Hippocampal lesion volume smaller than vehicle ([3]; 30 days post-trauma): approximately 26%
Brain AUC 0–∞, equivalent ([4]; assuming a density of 1 g/mL, repeated 25 mg/kg i.p. SB-3CT): 87.8 µM·min
t ½α, brain ([4]; repeated 25 mg/kg i.p. SB-3CT): 8.7 min
t ½α, plasma ([4]; repeated 25 mg/kg i.p. SB-3CT): 6.6 min
Brain concentration ([4]; repeated 25 mg/kg i.p. SB-3CT (0, 2, 24 h), 10 min after last dose): 3.7±0.5 pmole/mg tissue
Plasma concentration ([4]; repeated 25 mg/kg i.p. SB-3CT, 10 min after last dose): 6200 ± 100 nM
Brain concentration [4, 5]: 1.6±0.3 pmole/mg tissue
Plasma concentration [4, 5]: 2900 ± 300 nM
Brain concentration [4, 6]: 0.99±0.09 pmole/mg tissue
Plasma concentration [4, 6]: 760 ± 260 nM
Brain concentration [4, 7]: 0.19±0.05 pmole/mg tissue
Plasma concentration [4, 7]: 550 ± 80 nM
Brain concentration [4, 8]: 0.16±0.08 pmole/mg tissue
Plasma concentration [4, 8]: 220 ± 130 nM
Brain concentration [4, 9]: 0.049±0.013 pmole/mg tissue
Plasma concentration [4, 9]: 100 ± 40 nM
Brain concentration ([4]; repeated 25 mg/kg i.p. SB-3CT, 180 min after last dose): 0.022±0.005 pmole/mg tissue
Levels of proMMP-9 and active MMP-9 in lesioned cortex (gelatin zymography, densitometry) (MMP-9): attenuated
